target: T1, human PAH with the R408W mutation (Homo sapiens, UniProt P00439, R408W); assay: Cell Based Phenylalanine Flux Assay; conditions: A375 cells expressing human R408W PAH; 24 hrs compound incubation; 13C-Tyrosine by LC-MS; average where tested multiple times; read-out: AC50;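 also: after compound treatment, cells received sepiapterin plus isotope-labelled Phenylalanine for 4 hours, then labelled Tyrosine in the medium was quantified, 10-point 2-fold dilution series run in duplicate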
T1 construct: expressed in transfected cells
T1 sequence (P00439 1-452 R408W): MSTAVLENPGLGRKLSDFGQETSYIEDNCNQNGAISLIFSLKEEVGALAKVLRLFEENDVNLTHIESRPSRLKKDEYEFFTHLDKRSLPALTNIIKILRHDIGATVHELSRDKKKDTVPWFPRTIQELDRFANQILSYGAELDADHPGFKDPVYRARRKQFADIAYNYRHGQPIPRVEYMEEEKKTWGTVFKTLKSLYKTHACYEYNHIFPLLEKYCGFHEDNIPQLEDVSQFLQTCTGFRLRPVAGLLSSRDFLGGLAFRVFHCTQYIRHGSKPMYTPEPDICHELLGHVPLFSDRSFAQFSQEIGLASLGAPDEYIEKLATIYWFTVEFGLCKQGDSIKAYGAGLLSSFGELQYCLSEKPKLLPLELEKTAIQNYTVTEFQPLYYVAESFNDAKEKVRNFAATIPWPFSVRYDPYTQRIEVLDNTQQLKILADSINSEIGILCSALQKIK

SMILES | AC50 [nM]
O=C(c1nnc(-c2cnn(C(F)(F)F)c2)o1)N1CCc2[nH]cnc2[C@H]1c1cc2cccc(Cl)n2n1 [Example 1444, (S)-(4-(7-chloropyrazolo[1,5-a]pyridin-2-yl)-6,7-dihydro-1H-imidazo[4,5-c]pyridin-5(4H)-yl)(5-(1-(trifluoromethyl)–1H-pyrazol-4-yl)-1,3,4-oxadiazol-2-yl)methanone] | < 500
Cc1cccc2cc([C@H]3c4nc[nH]c4CCN3C(=O)c3nnc(-c4cnn(C(F)(F)F)c4)o3)nn12 [Example 1447, (R)-(4-(7-methylpyrazolo[1,5-a]pyridin-2-yl)-6,7-dihydro-1H-imidazo[4,5-c]pyridin-5(4H)-yl)(5-(1-(trifluoromethyl)-1H-pyrazol-4-yl)-1,3,4-oxadiazol-2-yl)methanone] | > 5000
CC(C)c1nnc(C(=O)N2CCc3[nH]cnc3[C@H]2c2cc3ccccn3n2)o1 [Example 1448, (S)-(5-isopropyl-1,3,4-oxadiazol-2-yl)(4-(pyrazolo[1,5-a]pyridin-2-yl)-6,7-dihydro-1H-imidazo[4,5-c]pyridin-5(4H)-yl)methanone] | 500 to 1000
CC(C)c1nnc(C(=O)N2CCc3[nH]cnc3[C@@H]2c2cc3ccccn3n2)o1 [Example 1449, (R)-(5-isopropyl-1,3,4-oxadiazol-2-yl)(4-(pyrazolo(1,5-a]pyridin-2-yl)-6,7-dihydro-1H-imidazo[4,5-c]pyridin-5(4H)-yl)methanone] | 1000 to 5000
Cc1cccn2nc([C@@H]3c4nc[nH]c4CCN3C(=O)c3nnc(C(C)C)o3)cc12 [Example 1450, (S)-(5-isopropyl-1,3,4-oxadiazol-2-yl)(4-(4-methylpyrazolo[1,5-a]pyridin-2-yl)-6,7-dihydro-1H-imidazo[4,5-c]pyridin-5(4H)-yl)methanone] | < 500
Cc1cccn2nc([C@H]3c4nc[nH]c4CCN3C(=O)c3nnc(C(C)C)o3)cc12 [Example 1451, (R)-(5-isopropyl-1,3,4-oxadiazol-2-yl)(4-(4-methylpyrazolo[1,5-a]pyridin-2-yl)-6,7-dihydro-1H-imidazo[4,5-c]pyridin-5(4H)-yl)methanone] | > 5000
CC(C)c1nnc(C(=O)N2CCc3[nH]cnc3[C@H]2c2cc3c(F)cccn3n2)o1 [Example 1452, (S)-(4-(4-fluoropyrazolo[1,5-a]pyridin-2-yl)-6,7-dihydro-1H-imidazo[4,5-c]pyridin-5(4H)-yl)(5-isopropyl-1,3,4-oxadiazol-2-yl)methanone] | < 500
Clc1cccn2nc([C@H]3c4nc[nH]c4CCN3c3nnc(C4CC4)o3)cc12 [Example 1454, (R)-2-(4-(4-chloropyrazolo[1,5-a]pyridin-2-yl)-1,4,6,7-tetrahydro-5H-imidazo[4,5-c]pyridin-5-yl)-5-cyclopropyl-1,3,4-oxadiazole] | > 5000
Clc1cccn2nc([C@@H]3c4nc[nH]c4CCN3c3nnc(C4CC4)o3)cc12 [Example 1455, (S)-2-(4-(4-chloropyrazolo[1,5-a]pyridin-2-yl)-1,4,6,7-tetrahydro-5H-imidazo[4,5-c]pyridin-5-yl)-5-cyclopropyl-1,3,4-oxadiazole] | < 500
Cn1ccc(-c2nnc(C(=O)N3CCc4[nH]cnc4[C@H]3c3cc4cccc(F)n4n3)o2)n1 [Example 1456, (S)-(4-(7-fluoropyrazolo[1,5-a]pyridin-2-yl)-6,7-dihydro-1H-imidazo[4,5-c]pyridin-5(4H)-yl)(5-(1-methyl-1H-pyrazol-3-yl)-1,3,4-oxadiazol-2-yl)methanone] | < 500
Cn1ccc(-c2nnc(C(=O)N3CCc4[nH]cnc4[C@@H]3c3cc4cccc(F)n4n3)o2)n1 [Example 1457, (R)-(4-(7-fluoropyrazolo[1,5-a]pyridin-2-yl)-6,7-dihydro-1H-imidazo[4,5-c]pyridin-5(4H)-yl)(5-(1-methyl-1H-pyrazol-3-yl)-1,3,4-oxadiazol-2-yl)methanone] | 1000 to 5000
O=C(c1nnc(-c2ncccc2F)o1)N1CCc2[nH]cnc2[C@@H]1c1cc2cccc(F)n2n1 [Example 1458, (R)-(4-(7-fluoropyrazolo[1,5-a]pyridin-2-yl)-6,7-dihydro-1H-imidazo[4,5-c]pyridin-5(4H)-yl)(5-(3-fluoropyridin-2-yl)-1,3,4-oxadiazol-2-yl)methanone] | 1000 to 5000
O=C(c1nnc(-c2ncccc2F)o1)N1CCc2[nH]cnc2[C@H]1c1cc2cccc(F)n2n1 [Example 1459, (S)-(4-(7-fluoropyrazolo[1,5-a]pyridin-2-yl)-6,7-dihydro-1H-imidazo[4,5-c]pyridin-5(4H)-yl)(5-(3-fluoropyridin-2-yl)-1,3,4-oxadiazol-2-yl)methanone] | < 500
O=C(c1nnc(-c2cnccn2)o1)N1CCc2[nH]cnc2[C@H]1c1cc2cccc(F)n2n1 [Example 1461, (S)-(4-(7-fluoropyrazolo[1,5-a]pyridin-2-yl)-6,7-dihydro-1H-imidazo[4,5-c]pyridin-5(4H)-yl)(5-(pyrazin-2-yl)-1,3,4-oxadiazol-2-yl)methanone] | 500 to 1000
Cc1c(-c2nnc(C(=O)N3CCc4[nH]cnc4[C@H]3c3cc4cccc(F)n4n3)o2)cnn1C [Example 1462, (S)-(5-(1,5-dimethyl-1H-pyrazol-4-yl)-1,3,4-oxadiazol-2-yl)(4-(7-fluoropyrazolo[1,5-a]pyridin-2-yl)-6,7-dihydro-1H-imidazo[4,5-c]pyridin-5(4H)-yl)methanone] | < 500
Cc1c(-c2nnc(C(=O)N3CCc4[nH]cnc4[C@@H]3c3cc4cccc(F)n4n3)o2)cnn1C [Example 1463, (R)-(5-(1,5-dimethyl-1H-pyrazol-4-yl)-1,3,4-oxadiazol-2-yl)(4-(7-fluoropyrazolo[1,5-a]pyridin-2-yl)-6,7-dihydro-1H-imidazo[4,5-c]pyridin-5(4H)-yl)methanone] | 1000 to 5000
Cc1cccc(-c2nnc(C(=O)N3CCc4[nH]cnc4[C@@H]3c3cc4c(C(F)F)cccn4n3)o2)n1 [Example 1464, (R)-(4-(4-(difluoromethyl)pyrazolo[1,5-a]pyridin-2-yl)-6,7-dihydro-1H-imidazo[4,5-c]pyridin-5(4H)-yl)(5-(6-methylpyridin-2-yl)-1,3,4-oxadiazol-2-yl)methanone] | 1000 to 5000
Cc1cccc(-c2nnc(C(=O)N3CCc4[nH]cnc4[C@H]3c3cc4c(C(F)F)cccn4n3)o2)n1 [Example 1465, (S)-(4-(4-(difluoromethyl)pyrazolo[1,5-a]pyridin-2-yl)-6,7-dihydro-1H-imidazo[4,5-c]pyridin-5(4H)-yl)(5-(6-methylpyridin-2-yl)-1,3,4-oxadiazol-2-yl)methanone] | < 500
Cc1nn(C)cc1-c1nnc(C(=O)N2CCc3[nH]cnc3[C@@H]2c2cc3c(C(F)F)cccn3n2)o1 [Example 1467, (R)-(4-(4-(difluoromethyl)pyrazolo[1,5-a]pyridin-2-yl)-6,7-dihydro-1H-imidazo[4,5-c]pyridin-5(4H)-yl)(5-(1,3-dimethyl-1H-pyrazol-4-yl)-1,3,4-oxadiazol-2-yl)methanone] | 1000 to 5000
O=C(c1nnc(-c2cccnc2)o1)N1CCc2[nH]cnc2[C@H]1c1cc2cccc(C(F)F)n2n1 [Example 1468, (S)-(4-(7-(difluoromethyl)pyrazolo[1,5-a]pyridin-2-yl)-6,7-dihydro-1H-imidazo[4,5-c]pyridin-5(4H)-yl)(5-(pyridin-3-yl)-1,3,4-oxadiazol-2-yl)methanone] | < 500
O=C(c1nnc(-c2cccnc2)o1)N1CCc2[nH]cnc2[C@@H]1c1cc2cccc(C(F)F)n2n1 [Example 1469, (R)-(4-(7-(difluoromethyl)pyrazolo[1,5-a]pyridin-2-yl)-6,7-dihydro-1H-imidazo[4,5-c]pyridin-5(4H)-yl)(5-(pyridin-3-yl)-1,3,4-oxadiazol-2-yl)methanone] | > 5000
Cc1cccc(-c2nnc(C(=O)N3CCc4[nH]cnc4[C@H]3c3cc4c(F)cccn4n3)o2)n1 [Example 1470, (S)-(4-(4-fluoropyrazolo[1,5-a]pyridin-2-yl)-6,7-dihydro-1H-imidazo[4,5-c]pyridin-5(4H)-yl)(5-(6-methylpyridin-2-yl)-1,3,4-oxadiazol-2-yl)methanone] | < 500
Cc1cccn2nc([C@@H]3c4nc[nH]c4CCN3C(=O)c3nnc(-c4cnn(C(F)(F)F)c4)o3)cc12 [Example 1472, (S)-(4-(4-methylpyrazolo[1,5-a]pyridin-2-yl)-6,7-dihydro-1H-imidazo[4,5-c]pyridin-5(4H)-yl)(5-(1-(trifluoromethyl)-1H-pyrazol-4-yl)-1,3,4-oxadiazol-2-yl)methanone] | 500 to 1000
Cc1cccn2nc([C@H]3c4nc[nH]c4CCN3C(=O)c3nnc(-c4cnn(C(F)(F)F)c4)o3)cc12 [Example 1473, (R)-(4-(4-methylpyrazolo[1,5-a]pyridin-2-yl)-6,7-dihydro-1H-imidazo[4,5-c]pyridin-5(4H)-yl)(5-(1-(trifluoromethyl)-1H-pyrazol-4-yl)-1,3,4-oxadiazol-2-yl)methanone] | 1000 to 5000
O=C(c1nnc(-c2ccn(C(F)(F)F)n2)o1)N1CCc2[nH]cnc2[C@@H]1c1cc2cccc(F)n2n1 [Example 1475, (R)-(4-(7-fluoropyrazolo[1,5-a]pyridin-2-yl)-6,7-dihydro-1H-imidazo[4,5-c]pyridin-5(4H)-yl)(5-(1-(trifluoromethyl)-1H-pyrazol-3-yl)-1,3,4-oxadiazol-2-yl)methanone] | 1000 to 5000

Reference: patent US20230365592A1 (Agios Pharmaceuticals, Inc., priority 2022, published 2023)
